In US20240150377A1, “MODULATORS OF CYSTIC FIBROSIS TRANSMEMBRANE CONDUCTANCE REGULATOR” (VERTEX PHARMACEUTICALS INCORPORATED, priority 2020, published 2024):
Read-outs that look alike come from different tables or passages of the source.

Molecular target: CFTR (Homo sapiens, UniProt P13569)
Test: Membrane potential dye, Enteroid Assay A
Assay type: cell-based
Conditions: for Ent. A Max Activity: chloride transport as % of triple combination control (Enteroid Assay A); for EC50: human enteroid cells, 18-24 hours, acute 10 μM forskolin and 300 nM ivacaftor, read-out: Ent. A EC50
In short: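 % Activity: chloride transport relative to a 3 μM/3 μM corrector pair plus 300 nM acute potentiator control. Primary human enteroid cells, 18-24 h compound exposure at 37 °C; membrane potential dye (methyl oxonol) fluorescence over 15 min after forskolin (10 μM)/IBMX (100 μM)/Compound III (300 nM) stimulation in chloride-free buffer.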

Sequence of CFTR (P13569 with tags, fused parts or gaps DEL508-508): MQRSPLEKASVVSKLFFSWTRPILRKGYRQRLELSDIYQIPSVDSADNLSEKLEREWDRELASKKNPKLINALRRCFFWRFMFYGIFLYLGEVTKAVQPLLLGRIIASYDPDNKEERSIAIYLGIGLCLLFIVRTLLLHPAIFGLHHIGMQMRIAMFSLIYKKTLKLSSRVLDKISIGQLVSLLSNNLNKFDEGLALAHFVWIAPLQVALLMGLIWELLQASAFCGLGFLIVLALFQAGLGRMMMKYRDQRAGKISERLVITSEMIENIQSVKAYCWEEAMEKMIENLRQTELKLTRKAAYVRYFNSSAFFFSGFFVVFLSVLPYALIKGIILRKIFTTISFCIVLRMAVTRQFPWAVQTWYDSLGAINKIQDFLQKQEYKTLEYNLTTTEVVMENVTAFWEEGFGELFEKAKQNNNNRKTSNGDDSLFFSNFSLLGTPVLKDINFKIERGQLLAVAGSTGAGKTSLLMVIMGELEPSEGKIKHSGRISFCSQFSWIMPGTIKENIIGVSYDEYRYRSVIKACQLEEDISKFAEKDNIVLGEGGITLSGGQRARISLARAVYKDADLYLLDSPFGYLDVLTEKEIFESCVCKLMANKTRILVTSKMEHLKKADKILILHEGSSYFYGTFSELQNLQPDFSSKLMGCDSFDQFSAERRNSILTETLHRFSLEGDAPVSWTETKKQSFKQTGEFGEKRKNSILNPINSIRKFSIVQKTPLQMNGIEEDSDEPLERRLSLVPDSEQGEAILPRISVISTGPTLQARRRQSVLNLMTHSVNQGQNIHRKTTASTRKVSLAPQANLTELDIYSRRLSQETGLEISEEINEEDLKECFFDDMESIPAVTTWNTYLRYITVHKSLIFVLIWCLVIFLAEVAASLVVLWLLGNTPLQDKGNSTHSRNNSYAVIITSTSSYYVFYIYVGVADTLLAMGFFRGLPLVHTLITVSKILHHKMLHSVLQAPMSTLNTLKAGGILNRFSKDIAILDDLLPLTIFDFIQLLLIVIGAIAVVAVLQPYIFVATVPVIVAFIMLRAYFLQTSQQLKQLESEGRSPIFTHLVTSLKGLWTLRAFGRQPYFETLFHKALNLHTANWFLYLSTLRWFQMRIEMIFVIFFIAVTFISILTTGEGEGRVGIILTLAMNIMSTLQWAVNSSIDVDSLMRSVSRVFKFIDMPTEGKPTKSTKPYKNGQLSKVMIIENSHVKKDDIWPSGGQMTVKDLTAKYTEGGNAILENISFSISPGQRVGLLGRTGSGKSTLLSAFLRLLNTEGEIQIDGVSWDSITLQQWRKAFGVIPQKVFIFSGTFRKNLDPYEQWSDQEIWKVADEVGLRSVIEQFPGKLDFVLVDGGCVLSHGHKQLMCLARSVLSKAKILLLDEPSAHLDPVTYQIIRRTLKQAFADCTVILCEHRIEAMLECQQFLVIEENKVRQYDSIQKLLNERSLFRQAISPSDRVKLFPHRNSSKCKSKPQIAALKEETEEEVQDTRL

Compound	Ent. A Max Activity (Table 6)	EC50 (Table 6)	Ent. A Max Activity (Table 7)	EC50 (Table 7)
Cc1cccc(C)c1-c1cc2nc(n1)NS(=O)(=O)c1cccc(c1)C(=O)N(Cc1cncn1C)[C@H](CC(C)C)CO2 [Compound 365]	+++ (+++ is >60%)	1000 to 3000 nM	–	–
Cc1cccc(C)c1-c1cc2nc(n1)NS(=O)(=O)c1cccc(c1)C(=O)N(CC1CC1)[C@H](CC(C)C)CO2 [Compound 366]	+++ (+++ is >60%)	< 1000 nM	–	–
COC(=O)CCCN1C(=O)c2cccc(c2)S(=O)(=O)Nc2nc(cc(-c3c(C)cccc3C)n2)OC[C@H]1CC(C)C [Compound 367]	+++ (+++ is >60%)	< 1000 nM	–	–
Cc1cccc(C)c1-c1cc2nc(n1)NS(=O)(=O)c1cccc(c1)C(=O)N(Cc1cnc3ccccn13)[C@H](CC(C)C)CO2 [Compound 368]	+++ (+++ is >60%)	< 1000 nM	–	–
Cc1cccc(C)c1-c1cc2nc(n1)NS(=O)(=O)c1cccc(c1)C(=O)N(CCC(C)C)[C@H](CC(C)C)CO2 [Compound 369]	+++ (+++ is >60%)	< 1000 nM	–	–
Cc1cccc(C)c1-c1cc2nc(n1)NS(=O)(=O)c1cccc(c1)C(=O)N(CCC(C1CC1)C1CC1)[C@H](CC(C)C)CO2 [Compound 413]	–	–	+++ (+++ is >60%)	< 1000 nM
Cc1cccc(C)c1-c1cc2nc(n1)NS(=O)(=O)c1cccc(c1)C(=O)N(CC1CC3(CCN(C(C)C)CC3)C1)[C@H](CC(C)C)CO2 [Compound 415]	–	–	+++ (+++ is >60%)	< 1000 nM
Cc1cccc(C)c1-c1cc2nc(n1)NS(=O)(=O)c1cccc(c1)C(=O)N(CC1CC13CCOCC3)[C@H](CC(C)C)CO2 (some centres unmarked) [Compound 416]	–	–	+++ (+++ is >60%)	< 1000 nM
Cc1cccc(C)c1-c1cc2nc(n1)NS(=O)(=O)c1cccc(c1)C(=O)N(Cc1cccn(C)c1=O)[C@H](CC(C)C)CO2 [Compound 417]	–	–	+++ (+++ is >60%)	< 1000 nM
COc1ncccc1CN1C(=O)c2cccc(c2)S(=O)(=O)Nc2nc(cc(-c3c(C)cccc3C)n2)OC[C@H]1CC(C)C [Compound 420]	+++ (+++ is >60%)	< 1000 nM	–	–
COc1ccncc1CN1C(=O)c2cccc(c2)S(=O)(=O)Nc2nc(cc(-c3c(C)cccc3C)n2)OC[C@H]1CC(C)C [Compound 421]	+++ (+++ is >60%)	< 1000 nM	–	–
COc1ccc(CN2C(=O)c3cccc(c3)S(=O)(=O)Nc3nc(cc(-c4c(C)cccc4C)n3)OC[C@H]2CC(C)C)cn1 [Compound 422]	+++ (+++ is >60%)	< 1000 nM	–	–
COc1cccc(CN2C(=O)c3cccc(c3)S(=O)(=O)Nc3nc(cc(-c4c(C)cccc4C)n3)OC[C@H]2CC(C)C)n1 [Compound 423]	+++ (+++ is >60%)	< 1000 nM	–	–
COCCOCCN1C(=O)c2cccc(c2)S(=O)(=O)Nc2nc(cc(-c3c(C)cccc3C)n2)OC[C@H]1CC(C)C [Compound 424]	+++ (+++ is >60%)	< 1000 nM	–	–
Cc1cccc(C)c1-c1cc2nc(n1)NS(=O)(=O)c1cccc(c1)C(=O)N(Cc1ccc(C(C)(C)C)cc1)[C@H](CC(C)C)CO2 [Compound 425]	+++ (+++ is >60%)	< 1000 nM	–	–
Cc1cccc(C)c1-c1cc2nc(n1)NS(=O)(=O)c1cccc(c1)C(=O)N(CC1CCN(C)CC1)[C@H](CC(C)(C)C)CO2 [Compound 426]	+++ (+++ is >60%)	1000 to 3000 nM	–	–
Cc1cccc(C)c1-c1cc2nc(n1)NS(=O)(=O)c1cccc(c1)C(=O)N(CCOC(C)(C)C)[C@H](CC(C)C)CO2 [Compound 427]	+++ (+++ is >60%)	< 1000 nM	–	–
Cc1cccc(C)c1-c1cc2nc(n1)NS(=O)(=O)c1cccc(c1)C(=O)N(C[C@H]1CCOC(C)(C)C1)[C@H](CC(C)C)CO2 [Compound 428]	+++ (+++ is >60%)	< 1000 nM	–	–
Cc1cccc(C)c1-c1cc2nc(n1)NS(=O)(=O)c1cccc(c1)C(=O)N(CCC(C)(C)C)[C@H](CC(C)C)CO2 [Compound 429]	+++ (+++ is >60%)	< 1000 nM	–	–
Cc1cc(CN2C(=O)c3cccc(c3)S(=O)(=O)Nc3nc(cc(-c4c(C)cccc4C)n3)OC[C@H]2CC(C)C)[nH]n1 [Compound 430]	+++ (+++ is >60%)	< 1000 nM	–	–
Cc1cccc(C)c1-c1cc2nc(n1)NS(=O)(=O)c1cccc(c1)C(=O)N(Cc1cnn(C)c1)[C@H](CC(C)C)CO2 [Compound 432]	+++ (+++ is >60%)	< 1000 nM	–	–
Cc1cccc(C)c1-c1cc2nc(n1)NS(=O)(=O)c1cccc(c1)C(=O)N(C)C[C@H](c1ccc(-c3ccc(C(C)(C)C)cc3)cn1)O2 [Compound 509]	–	–	+ (+ is <30%)	–
Cc1cccc(C)c1-c1cc2nc(n1)NS(=O)(=O)c1cccc(c1)C(=O)N(C)C[C@H](c1ccc(-c3ccc(C(C)(C)C)cc3)cn1)O2 [Compound 510]	–	–	+++ (+++ is >60%)	< 1000 nM

Compound	Ent. A Max Activity (Table 6)	EC50 (Table 6)	Ent. A Max Activity (Table 7)	EC50 (Table 7)
Cc1cccc(C)c1-c1cc2nc(n1)NS(=O)(=O)c1cccc(c1)C(=O)N(C)CC(c1ccc(-c3ccc(C(C)(C)C)cc3)cn1)O2 (centres unmarked) [Compound 511]	+++ (+++ is >60%)	< 1000 nM	–	–
Cc1cccc(C)c1-c1cc2nc(n1)NS(=O)(=O)c1cccc(c1)C(=O)N(C)[C@@H](CC(C)C)[C@H](c1ccc(C(C)(C)C)nc1)O2 [Compound 512]	+ (+ is <30%)	–	–	–
Cc1cccc(C)c1-c1cc2nc(n1)NS(=O)(=O)c1cccc(c1)C(=O)N(C)CC(c1ccc(-c3ccccc3)cn1)O2 (centres unmarked) [Compound 513]	+++ (+++ is >60%)	1000 to 3000 nM	–	–
Cc1cccc(C)c1-c1cc2nc(n1)NS(=O)(=O)c1cccc(c1)C(=O)N(Cc1ccccc1)C(C(=O)NCc1ccccc1)CO2 (centres unmarked) [Compound 514]	+ (+ is <30%)	3000 to 30000 nM	–	–
Cc1cccc(C)c1-c1cc2nc(n1)NS(=O)(=O)c1cccc(c1)C(=O)N(Cc1ccccc1)C(C(=O)NC1CCCCC1)CO2 (centres unmarked) [Compound 515]	+ (+ is <30%)	1000 to 3000 nM	–	–
Cc1cccc(C)c1-c1cc2nc(n1)NS(=O)(=O)c1cccc(c1)C(=O)N(C)CC(c1ccc(C(N)=O)cc1)O2 (centres unmarked) [Compound 666]	+ (+ is <30%)	–	–	–
Cc1cccc(C)c1-c1cc2nc(n1)NS(=O)(=O)c1cccc(c1)C(=O)N(C)CC(c1ccc(C#N)cc1)O2 (centres unmarked) [Compound 667]	++ (++ is 30-60%)	1000 to 3000 nM	–	–
Cc1cccc(C)c1-c1cc2nc(n1)NS(=O)(=O)c1cccc(c1)C(=O)N(C)CC(c1ccc(C3=CCOCC3)cc1)O2 (centres unmarked) [Compound 670]	–	–	++ (++ is 30-60%)	1000 to 3000 nM
Cc1cccc(C)c1-c1cc2nc(n1)NS(=O)(=O)c1cccc(c1)C(=O)N(C)CC(c1ccc(C3=CCOCC3)cc1)O2 (centres unmarked) [Compound 671]	–	–	+++ (+++ is >60%)	< 1000 nM
Cc1cccc(C)c1-c1cc2nc(n1)NS(=O)(=O)c1cccc(c1)C(=O)N(C)C[C@H](c1ccccc1)O2 [Compound 672]	++ (++ is 30-60%)	< 1000 nM	–	–
Cc1cccc(C)c1-c1cc2nc(n1)NS(=O)(=O)c1cccc(c1)C(=O)N(C)C[C@H](c1ccccc1)O2 [Compound 673]	+ (+ is <30%)	3000 to 30000 nM	–	–
Cc1cccc(C)c1-c1cc2nc(n1)NS(=O)(=O)c1cccc(c1)C(=O)N(C)CC(c1ccc(C3CC3)cc1)O2 (centres unmarked) [Compound 674]	++ (++ is 30-60%)	< 1000 nM	–	–
Cc1cccc(C)c1-c1cc2nc(n1)NS(=O)(=O)c1cccc(c1)C(=O)N(C)CC(c1ccc(C3=CCOCC3)cc1)O2 (centres unmarked) [Compound 675]	++ (++ is 30-60%)	< 1000 nM	–	–
Cc1cccc(C)c1-c1cc2nc(n1)NS(=O)(=O)c1cccc(c1)C(=O)N(C)CC(c1ccc(C3=CCN(C)CC3)cc1)O2 (centres unmarked) [Compound 676]	++ (++ is 30-60%)	3000 to 30000 nM	–	–
Cc1cccc(C)c1-c1cc2nc(n1)NS(=O)(=O)c1cccc(c1)C(=O)N(C)CC(c1ccccc1)O2 (centres unmarked) [Compound 677]	+++ (+++ is >60%)	< 1000 nM	–	–
COc1ccc(CN2C(=O)c3cccc(c3)S(=O)(=O)Nc3nc(cc(-c4c(C)cccc4C)n3)OC[C@H]2CC2(C(F)(F)F)CC2)cc1 [Compound 678]	–	–	++ (++ is 30-60%)	< 1000 nM
COc1ccc(CN2C(=O)c3cccc(c3)S(=O)(=O)Nc3nc(cc(-c4c(C)cccc4C)n3)OC[C@H]2CC2(C(F)(F)F)CC2)cc1 [Compound 679]	–	–	+++ (+++ is >60%)	< 1000 nM
Cc1cccc(C)c1-c1cc2nc(n1)NS(=O)(=O)c1cccc(c1)C(=O)N(CCC1CCOCC1)[C@H](CC1(C(F)(F)F)CC1)CO2 [Compound 680]	–	–	+ (+ is <30%)	< 1000 nM
Cc1cccc(C)c1-c1cc2nc(n1)NS(=O)(=O)c1cccc(c1)C(=O)N(CCC1CCOCC1)[C@H](CC1(C(F)(F)F)CC1)CO2 [Compound 681]	–	–	+++ (+++ is >60%)	< 1000 nM
CNC(=O)c1ccc(CN2C(=O)c3cccc(c3)S(=O)(=O)Nc3nc(cc(-c4c(C)cccc4C)n3)OC[C@H]2CC2(C(F)(F)F)CC2)cc1 [Compound 682]	–	–	+ (+ is <30%)	1000 to 3000 nM
CNC(=O)c1ccc(CN2C(=O)c3cccc(c3)S(=O)(=O)Nc3nc(cc(-c4c(C)cccc4C)n3)OC[C@H]2CC2(C(F)(F)F)CC2)cc1 [Compound 683]	–	–	+++ (+++ is >60%)	< 1000 nM
Cc1cccc(C)c1-c1cc2nc(n1)NS(=O)(=O)c1cccc(c1)C(=O)N(Cc1ccc(N3CCN(C)CC3)nc1)[C@H](CC1(C(F)(F)F)CC1)CO2 [Compound 684]	–	–	+++ (+++ is >60%)	< 1000 nM
Cc1cccc(C)c1-c1cc2nc(n1)NS(=O)(=O)c1cccc(c1)C(=O)N(CCC(C)(C)C)[C@H](CC1(C(F)(F)F)CC1)CO2 [Compound 686]	–	–	+ (+ is <30%)	< 1000 nM
